Assay results taken from ChEMBL document CHEMBL1201862, “PubChem BioAssay data set” (2004).
Calls of active or inactive are those of the source.

What was measured:
Hexokinase HKDC1 = biological target: T1, Hexokinase HKDC1 (Homo sapiens, UniProt Q2TB90); experiment: activation of HKDC1 glucose phosphorylation – biochemical, W721R variant, dose response (AID 504730); type: functional
T1 sequence (Q2TB90 whole entry): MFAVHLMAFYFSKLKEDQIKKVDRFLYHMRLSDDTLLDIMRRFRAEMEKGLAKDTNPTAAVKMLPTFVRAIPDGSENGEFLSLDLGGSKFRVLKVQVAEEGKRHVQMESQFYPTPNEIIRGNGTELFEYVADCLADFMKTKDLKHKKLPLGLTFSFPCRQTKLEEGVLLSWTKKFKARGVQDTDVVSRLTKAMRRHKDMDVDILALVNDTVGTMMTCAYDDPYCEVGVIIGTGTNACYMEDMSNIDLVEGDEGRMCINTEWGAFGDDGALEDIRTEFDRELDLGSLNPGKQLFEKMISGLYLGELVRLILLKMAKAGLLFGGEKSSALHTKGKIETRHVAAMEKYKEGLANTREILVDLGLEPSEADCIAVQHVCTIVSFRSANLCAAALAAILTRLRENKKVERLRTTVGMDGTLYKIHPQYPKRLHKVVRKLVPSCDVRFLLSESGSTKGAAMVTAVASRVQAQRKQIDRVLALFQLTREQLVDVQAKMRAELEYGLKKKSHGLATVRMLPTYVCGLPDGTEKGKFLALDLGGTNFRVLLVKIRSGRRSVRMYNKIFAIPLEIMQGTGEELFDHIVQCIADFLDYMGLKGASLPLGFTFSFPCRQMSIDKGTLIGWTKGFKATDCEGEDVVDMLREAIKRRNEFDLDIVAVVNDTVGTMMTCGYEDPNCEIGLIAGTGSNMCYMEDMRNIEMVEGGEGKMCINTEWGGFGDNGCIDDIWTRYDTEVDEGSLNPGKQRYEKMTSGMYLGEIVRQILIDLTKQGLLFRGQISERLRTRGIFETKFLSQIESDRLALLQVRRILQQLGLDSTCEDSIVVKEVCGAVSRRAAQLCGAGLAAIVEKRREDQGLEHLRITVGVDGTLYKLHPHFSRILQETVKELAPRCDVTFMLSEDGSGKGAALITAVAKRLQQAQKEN

Hexokinase-1 = biological target: T2, Hexokinase-1 (Homo sapiens, UniProt P19367); experiment: HK1 enzyme activation by HKDC1 hits – biochemical, selectivity assay for HKDC1 activator project, dose response (AID 504762); type: functional
T2 sequence (P19367 whole entry): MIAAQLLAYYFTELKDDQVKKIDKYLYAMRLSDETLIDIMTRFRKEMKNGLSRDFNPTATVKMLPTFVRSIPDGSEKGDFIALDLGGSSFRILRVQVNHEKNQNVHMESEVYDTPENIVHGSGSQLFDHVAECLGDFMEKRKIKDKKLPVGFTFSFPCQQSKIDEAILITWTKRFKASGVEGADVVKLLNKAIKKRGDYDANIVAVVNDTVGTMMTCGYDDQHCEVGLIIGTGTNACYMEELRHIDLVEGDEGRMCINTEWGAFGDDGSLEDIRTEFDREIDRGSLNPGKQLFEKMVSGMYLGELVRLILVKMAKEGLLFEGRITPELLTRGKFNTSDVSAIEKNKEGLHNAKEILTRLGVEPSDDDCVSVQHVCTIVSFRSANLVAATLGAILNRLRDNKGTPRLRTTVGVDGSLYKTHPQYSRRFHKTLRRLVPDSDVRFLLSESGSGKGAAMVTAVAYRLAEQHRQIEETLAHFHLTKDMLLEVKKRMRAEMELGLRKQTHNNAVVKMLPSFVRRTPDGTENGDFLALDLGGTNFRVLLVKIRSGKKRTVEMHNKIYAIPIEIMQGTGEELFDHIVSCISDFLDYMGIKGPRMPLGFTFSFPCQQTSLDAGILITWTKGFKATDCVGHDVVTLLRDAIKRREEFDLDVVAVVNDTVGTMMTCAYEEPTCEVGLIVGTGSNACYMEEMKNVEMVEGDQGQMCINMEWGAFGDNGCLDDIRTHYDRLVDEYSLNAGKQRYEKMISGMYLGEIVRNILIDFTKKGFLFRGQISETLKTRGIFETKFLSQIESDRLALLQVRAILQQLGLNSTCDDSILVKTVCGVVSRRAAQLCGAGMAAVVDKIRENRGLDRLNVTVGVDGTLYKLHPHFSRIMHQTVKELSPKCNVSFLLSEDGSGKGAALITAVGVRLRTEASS

[1] = biological target: T3, Heat shock factor protein 1 (Mus musculus, UniProt P38532); experiment: enhancement of HSF1-driven luciferase signal – cell-based, NIH3T3, luminescence, dose retest, confirmation (AID 435004); type: functional;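 also: stress induced by proteasome inhibitor MG132 added 30 min after compound; luciferase reporter driven by HSF1 response element in NIH3T3 cells; actives raise luminescence as potentiators of the MG132 stress response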
T3 sequence (P38532 whole entry): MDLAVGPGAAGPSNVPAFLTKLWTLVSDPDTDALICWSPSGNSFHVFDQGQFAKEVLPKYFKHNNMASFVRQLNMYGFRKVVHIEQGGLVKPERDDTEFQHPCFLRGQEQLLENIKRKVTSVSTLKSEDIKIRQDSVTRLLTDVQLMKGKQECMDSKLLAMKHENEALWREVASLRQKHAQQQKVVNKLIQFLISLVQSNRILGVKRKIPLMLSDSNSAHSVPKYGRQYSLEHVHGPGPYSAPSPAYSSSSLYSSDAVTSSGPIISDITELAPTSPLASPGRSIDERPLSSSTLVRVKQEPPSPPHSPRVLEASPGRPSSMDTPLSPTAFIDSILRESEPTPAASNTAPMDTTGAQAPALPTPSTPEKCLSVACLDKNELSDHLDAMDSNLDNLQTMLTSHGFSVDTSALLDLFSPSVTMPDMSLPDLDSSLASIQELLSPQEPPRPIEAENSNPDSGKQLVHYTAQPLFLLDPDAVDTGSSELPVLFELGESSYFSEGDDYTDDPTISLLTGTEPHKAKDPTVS

[2] = biological target: DNA damage-inducible transcript 3 protein (Mus musculus, UniProt P35639); type: functional, Cricetulus griseus
Sequence of DNA damage-inducible transcript 3 protein (P35639 whole entry): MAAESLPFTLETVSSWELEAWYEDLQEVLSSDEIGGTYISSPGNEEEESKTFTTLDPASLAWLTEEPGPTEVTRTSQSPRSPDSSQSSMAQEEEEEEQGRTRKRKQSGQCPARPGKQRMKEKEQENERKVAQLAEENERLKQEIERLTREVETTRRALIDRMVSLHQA

| Compound | EC50 (Hexokinase HKDC1) | EC50 (Hexokinase-1) | EC50 [1] | Absolute IC50 (CHOP) [2] |
| --- | --- | --- | --- | --- |
| O=NNc1nc2ccccc2n1Cc1ccccc1 | 18.3 µM (active) | > 80 µM (inactive) | – | – |
| Cc1cccc(C)c1N1CCN(c2ccc3nnc(C(F)(F)F)n3n2)CC1 | – | – | 70 µM (active) | 10 µM |
| O=S(=O)(c1ccc(NC(=S)NN=C(Cc2ccccc2)Cc2ccccc2)cc1)N1CCOCC1 | 7.65 µM (active) | > 80 µM (inactive) | – | – |
